In patent US10106853B2, “CUL4B as predictive biomarker for cancer treatment” (CORNELL UNIVERSITY, priority 2012, dated 2018):

Molecular target: T1, Top1 (Homo sapiens, UniProt P11387)
T1 construct: CPT-induced TOP1 degradation in breast cancer cell lines; host or cells: human breast cancer cell lines BT474, BT20, MCF-7, MDA-MB-231, T47D, Sk-Br-3 (MCF-10A as control)
T1 sequence (P11387 1-765): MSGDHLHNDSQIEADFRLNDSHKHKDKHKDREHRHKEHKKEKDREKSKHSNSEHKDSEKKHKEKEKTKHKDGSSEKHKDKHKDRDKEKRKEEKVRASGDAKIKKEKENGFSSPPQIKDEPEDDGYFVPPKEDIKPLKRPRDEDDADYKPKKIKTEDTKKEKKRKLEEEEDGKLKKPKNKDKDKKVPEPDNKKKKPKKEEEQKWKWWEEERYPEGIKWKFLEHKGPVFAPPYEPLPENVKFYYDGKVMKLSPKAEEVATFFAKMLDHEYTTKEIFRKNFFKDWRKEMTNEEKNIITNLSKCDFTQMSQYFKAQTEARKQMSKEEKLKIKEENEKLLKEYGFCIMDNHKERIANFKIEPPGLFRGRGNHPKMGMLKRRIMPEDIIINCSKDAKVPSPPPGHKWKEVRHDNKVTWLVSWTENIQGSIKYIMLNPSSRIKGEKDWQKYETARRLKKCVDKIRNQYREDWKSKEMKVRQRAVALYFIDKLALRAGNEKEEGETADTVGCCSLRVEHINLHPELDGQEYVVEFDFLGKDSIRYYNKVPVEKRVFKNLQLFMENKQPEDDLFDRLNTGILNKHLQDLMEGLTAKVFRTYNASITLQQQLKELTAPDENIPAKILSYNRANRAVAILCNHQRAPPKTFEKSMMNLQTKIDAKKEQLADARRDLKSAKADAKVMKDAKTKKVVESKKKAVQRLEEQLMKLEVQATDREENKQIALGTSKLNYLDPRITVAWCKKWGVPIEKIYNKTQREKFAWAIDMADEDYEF
Experiment: CPT-induced TOP1 down regulation assay (immunoblotting)
Assay type: cell-based
Procedure: FIG. 1. CPT-induced TOP1 degradation in breast cancer cell lines. A) Expression of endogenous CUL4A and 4B in breast cancer cell lines. Total cell lysates were prepared from the indicated breast cancer cell lines and subjected to SDS PAGE and immunoblotting with antibodies against CUL4A, 4B and α-tubulin. The non-cancerous MCF-10A cell line was used as a control for comparison. B) CPT-induced TOP1 degradation in breast cancer cell lines. Cells were treated with 12.5 μM CPT or 1% DMSO for 4 hours, replenished with CPT-free fresh medium and incubated at 37° C. for 30 minutes to reverse the formation of TOP1 cleavable complex. Cells were then lysed and immunoblotted with the TOP1 and α-tubulin antibodies.
FIG. 2. CUL4B interacted with Top1 and induced Top1 degradation in the presence of CPT. A) Knockdown of CUL4B impaired CPT-induced Top1 degradation. BT474 cells were infected with lentiviral shCUL4B, shCUL4A or control non-targeting shRNA, and selected for stable CUL4B^k/d or CUL4A^k/d cells upon treatment with puromycin. Following treatment with CPT (50 μM) for 1 hour, cells were replenished with CPT-free fresh medium and incubated at 37° C. for 30 minutes. Top1 degradation was assessed by immunoblotting with an anti-Top1 antibody. Levels of α-tubulin were measured as a loading control. B) Association of CUL4B with Top1 following CPT treatment. BT474 cells were treated with proteosome inhibitor MG132 (15 μM) for 3 hours, and were subjected to crosslinking with 0.2 mM Dithiobis[succinimidyl propionate](DSP) for the last 30 min at room temperature. Cell lysates were prepared, and immunoprecipitated with the anti-Top1 or anti-CUL4B antibodies, and then immunoblotted using antibodies against CUL4B or Top1, respectively. IgG immunoprecipitates served as the negative control. C) Knockdown of CUL4B using a second shCUL4B-2 impaired CPT-induced Top1 degradation. BT474 cells were infected with lentiviral shCUL4B-2, shCUL4A-2 or control non-targeting shRNA and selected for stable CUL4B^k/d or CUL4A^k/d cells upon treatment with puromycin. Following treatment with CPT (50 μM) for 1.5 hr, cells were replenished with CPT-free fresh medium and incubated at 37° C. for 30 min. Top1 degradation was assessed by immunoblotting with the anti-Top1 antibody. Levels of α-tubulin were measured as a loading control. D) CUL4B inactivation sensitized BT474 cells to cytotoxic killing by camptothecin. BT474, BT474-CUL4A^k/d or BT474-CUL4B^k/d cells were synchronized with 1 μM nocodazole for 13 hours released in fresh medium, treated with the indicated concentrations of CPT for three days, and subjected to the XTT assay to measure the cytotoxic responses to CPT. […] The bars indicate the S.E. of six independent experiments. Statistical significance in cellular response to CPT between control BT474 cells and CUL4A^k/d or CUL4B^k/d cells were assessed by a two-tailed unpaired student t-test (***: p<0.001). The same results were obtained with a second lentiviral shRNA for CUL4A and CUL4B, as well as in T47D breast cancer cells. E, F) Knockdown of CUL4B increased the sensitivity of T47D cells to camptothecin. […] Statistical significance in cellular response to camptothecin between control cells and CUL4A^k/d or CUL4B^k/d BT474 cells are assessed by student's t-test.
CPT-induced Top1 degradation was monitored by immunoblotting of the alkaline lysates. […]

Row | Molecule | CPT-induced Top1 degradation compared to control (shCtrl) (CUL4A knockdown BT474 cells, CPT 50 μM, 1 hour) | CPT-induced Top1 degradation (CUL4B-silenced (CUL4B k/d) BT474 cells, CPT 50 μM, 1 hour) | Top1 degradation following treatment with CPT (breast cancer cells exhibiting elevated levels of CUL4B expression, 12.5 μM CPT, 4 hours) | Effect of shRNA knockdown on CPT-induced Top1 degradation (BT474 cells, lentiviral shRNA, CPT 50 μM, 1 to 1.5 hr)
1 | CC[C@@]1(O)C(=O)OCc2c1cc1n(c2=O)Cc2cc3ccccc3nc2-1 [CPT, (S)-4-ethyl-4-hydroxy-1H-pyrano[3′,4′:6,7]indolizino[1,2-b]quinoline-3,14-(4H, 12H)-dione] | no effect | abolished | eliminated or markedly destroyed Top1 | 
2 | shCUL4B: lentiviral shRNA CUL4B sequence purchased from Sigma Aldrich, reduces CUL4B expression (CCGGGCAGAATTTAAAGAGGGTAAACTCGAGTTTACCCTCTTTAAATTCTGCTTTTT) |  |  |  | impaired
